Assay results taken from ChEMBL document CHEMBL5154925, “Design and Optimization of Thienopyrimidine Derivatives as Potent and Selective PI3Kδ Inhibitors for the Treatment of B-Cell Malignancies” (J Med Chem, 2022).
Values after ≈ are worked out from the molar mass of the structure shown. Active and inactive are the calls of the source. The rule behind the calls is not given here.

Experiments:
[1] = Tmax in ICR mouse at 3 mg/kg, iv measured upto 24 hrs by LC-MS/MS analysis; format: ADME, organism-based; details: in vivo
SU-DHL-6 [2] = assay: Inhibition of P13K signaling pathway in human SU-DHL-6 cells assessed as reduction in […] incubated for 4 hrs by Western blot analysis; format: cell-based; details: dose 2-50 µM, DDE = dose-dependent effect
[3] = biological target: Phosphatidylinositol 4,5-bisphosphate 3-kinase catalytic subunit alpha isoform (Homo sapiens, UniProt P42336); assay: Inhibition of PI3Kalpha (unknown origin) using PIP2 as substrate measured after 1 hr in presence of ATP by ADP-glo luminescence assay
[4] = biological target: Ribosomal protein S6 kinase alpha-3 (Homo sapiens) (UniProt P51812); assay: Inhibition of wild type […] human RSK2 (M1 to D394 residues) expressed in mammalian expression system assessed as residual activity at 10 uM relative to control
Rec1 = assay: Antiproliferative activity against human REC1 cells assessed as cell growth inhibition incubated for 96 hrs by cell titer glo assay; format: functional, cell-based; details: Rec1, 96 h
[5] = Microsomal stability in mouse liver microsomes assessed as intrinsic clearance; format: ADME, Microsome; details: read-out: CLH
Pfeiffer [6] = assay: Antitumour activity against human Pfeiffer cells xenografted in nude mouse assessed as reduction in Ki67 expression in tumor at 75 mg/kg, po BID for 21 days by immunohistochemical analysis; format: functional, organism-based; details: time 21.0 day
[7] = biological target: Phosphatidylinositol 4,5-bisphosphate 3-kinase catalytic subunit alpha isoform (Mus musculus, UniProt P42337); assay: Inhibition of PI3Kalpha in IGF-1 stimulated mouse C2C12 cells incubated for 10 mins by AlphaLISA assay; format: cell-based
Pfeiffer [8] = assay: Induction of apoptosis in human Pfeiffer cells assessed as viable […] cells at 50 uM incubated for 48 hrs by annexin V-FITC staining based flow cytometry (reference value: 81.14 %); format: functional
SU-DHL-6 [9] = assay: Antiproliferative activity against human SU-DHL-6 cells assessed as cell growth inhibition incubated for 96 hrs by cell titer glo assay; format: functional, cell-based; details: SU-DHL-6, 96 h
[10] = AUC (0 to infinity) in ICR mouse at 30 mg/kg, po measured upto 24 hrs by LC-MS/MS analysis; format: ADME, organism-based; parameters: dose 30 mg/kg, time < 24 hrs, route po; details: in vivo
[11] = Plasma protein binding in mouse; format: ADME, cell-free; details: read-out: PPB (converted)
[12] = Solubility of the compound in FaSSIF; format: physicochemical
[13] = AUC (0 to t) in ICR mouse at 3 mg/kg, iv measured upto 24 hrs by LC-MS/MS analysis; format: ADME, organism-based; parameters: time < 24 hrs, dose 3 mg/kg, route iv; details: in vivo
Z-138 = assay: Antiproliferative activity against human Z138 cells assessed as cell growth inhibition incubated for 96 hrs by cell titer glo assay; format: functional, cell-based; details: Z-138, 96 h
Pfeiffer [14] = assay: Induction of apoptosis in human Pfeiffer cells assessed as late apoptotic cells at 10 uM incubated for 48 hrs by annexin V-FITC staining based flow cytometry (reference value: 7.87 %); format: functional
[15] = biological target: Serine/threonine-protein kinase mTOR (Homo sapiens, UniProt P42345); assay: Inhibition of mTOR (unknown origin)
[16] = Toxicity in nude mouse xenografted with human Pfeiffer cells assessed as effect on body weight at 75 mg/kg, po BID for 21 days and measured twice weekly; format: organism-based; details: in vivo, 504 h, time 21 day
[17] = Toxicity in nude mouse xenografted with human Pfeiffer cells assessed as effect on body weight at 5 mg/kg, ip BID for 21 days and measured twice weekly; format: organism-based; details: in vivo, 504 h, time 21 day
SU-DHL-6 [18] = assay: Inhibition of P13K signaling pathway in human SU-DHL-6 cells assessed as reduction in AKT phosphorylation at S473 residue incubated for 4 hrs by Western blot analysis; format: cell-based; details: dose 2-50 µM, DDE = dose-dependent effect
[19] = Oral bioavailability in ICR mouse at 30 mg/kg measured upto 24 hrs by LC-MS/MS analysis; format: ADME, organism-based; details: in vivo
[20] = Clearance in ICR mouse at 3 mg/kg, iv measured upto 24 hrs by LC-MS/MS analysis; format: ADME, organism-based; details: in vivo
Pfeiffer [21] = assay: Induction of apoptosis in human Pfeiffer cells assessed as necrotic cells at 2 uM incubated for 48 hrs by annexin V-FITC staining based flow cytometry (reference value: 6.62 %); format: functional
[22] = biological target: Phosphatidylinositol 4,5-bisphosphate 3-kinase catalytic subunit beta isoform (Homo sapiens, UniProt P42338); assay: Inhibition of PI3Kbeta in LPA stimulated human PC-3 cells incubated for 10 mins by AlphaLISA assay; format: cell-based
[23] = Half life in ICR mouse at 3 mg/kg, iv measured upto 24 hrs by LC-MS/MS analysis; format: ADME, organism-based; details: in vivo
JeKo-1 = assay: Antiproliferative activity against human JeKo-1 cells assessed as cell growth inhibition incubated for 96 hrs by cell titer glo assay; format: functional, cell-based; details: JeKo-1, 96 h
SU-DHL-6 [24] = assay: Induction of cell cycle arrest in human SU-DHL-6 cells assessed as accumulation at G0/G1 phase at 2 to 50 uM after 24 hrs by propidium iodide and RNAase staining based flow cytometric analysis; format: functional; details: dose 2-50 µM
Pfeiffer [25] = assay: Induction of apoptosis in human Pfeiffer cells assessed as viable […] cells at 2 uM incubated for 48 hrs by annexin V-FITC staining based flow cytometry (reference value: 81.14 %); format: functional
[26] = Cmax in ICR mouse at 3 mg/kg, iv measured upto 24 hrs by LC-MS/MS analysis; format: ADME, organism-based; parameters: time < 24 hrs, dose 3 mg/kg, route iv; details: in vivo
[27] = Apparent volume of distribution in ICR mouse at 3 mg/kg, iv measured upto 24 hrs by LC-MS/MS analysis; format: ADME, organism-based; details: in vivo, read-out: Vz
[28] = biological target: T1, Phosphatidylinositol 4,5-bisphosphate 3-kinase catalytic subunit gamma isoform (Homo sapiens, UniProt P48736); assay: Inhibition of PI3Kgamma (unknown origin) using PIP2 as substrate measured after 1 hr in presence of ATP by ADP-glo luminescence assay
Target sequence in this assay (P48736 whole entry, canonical isoform): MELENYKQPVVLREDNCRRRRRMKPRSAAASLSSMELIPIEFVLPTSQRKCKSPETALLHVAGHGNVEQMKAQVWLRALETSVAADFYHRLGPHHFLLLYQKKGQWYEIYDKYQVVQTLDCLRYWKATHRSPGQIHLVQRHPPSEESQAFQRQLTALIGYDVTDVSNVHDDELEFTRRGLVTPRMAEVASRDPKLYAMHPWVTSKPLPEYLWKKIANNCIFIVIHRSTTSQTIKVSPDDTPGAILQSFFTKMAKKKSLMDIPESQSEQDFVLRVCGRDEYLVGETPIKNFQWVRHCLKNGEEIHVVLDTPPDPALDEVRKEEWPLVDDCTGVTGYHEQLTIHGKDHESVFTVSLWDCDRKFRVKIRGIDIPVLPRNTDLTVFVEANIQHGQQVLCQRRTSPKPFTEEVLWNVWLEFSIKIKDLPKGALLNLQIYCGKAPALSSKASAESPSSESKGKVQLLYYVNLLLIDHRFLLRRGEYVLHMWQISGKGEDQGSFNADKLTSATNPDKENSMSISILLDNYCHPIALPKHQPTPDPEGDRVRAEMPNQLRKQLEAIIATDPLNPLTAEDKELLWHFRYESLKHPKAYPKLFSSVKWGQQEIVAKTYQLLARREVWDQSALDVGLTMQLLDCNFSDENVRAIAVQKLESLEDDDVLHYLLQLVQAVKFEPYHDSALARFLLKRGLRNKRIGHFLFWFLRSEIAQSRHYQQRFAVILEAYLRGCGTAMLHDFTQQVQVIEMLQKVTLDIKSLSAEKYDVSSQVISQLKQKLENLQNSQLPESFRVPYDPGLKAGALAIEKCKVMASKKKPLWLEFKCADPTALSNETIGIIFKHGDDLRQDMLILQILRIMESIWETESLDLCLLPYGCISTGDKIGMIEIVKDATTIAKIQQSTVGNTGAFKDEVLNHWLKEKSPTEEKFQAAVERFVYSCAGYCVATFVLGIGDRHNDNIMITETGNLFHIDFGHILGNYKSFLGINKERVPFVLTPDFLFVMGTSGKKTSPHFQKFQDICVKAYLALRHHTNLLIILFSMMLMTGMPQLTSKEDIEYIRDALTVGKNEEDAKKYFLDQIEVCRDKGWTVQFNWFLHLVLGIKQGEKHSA

Pfeiffer [29] = assay: Induction of apoptosis in human Pfeiffer cells assessed as early apoptotic cells at 50 uM incubated for 48 hrs by annexin V-FITC staining based flow cytometry (reference value: 4.16 %); format: functional
SU-DHL-6 [30] = assay: Induction of apoptosis in human SU-DHL-6 cells assessed as apoptotic rate incubated for 48 hrs by annexin V-FITC staining based flow cytometry; format: functional, cell-based; details: dose 2-50 µM, DDE = dose-dependent effect
[31] = Microsomal stability in mouse liver microsomes assessed as half life; format: ADME, Microsome
[32] = biological target: T1, Phosphatidylinositol 4,5-bisphosphate 3-kinase catalytic subunit gamma isoform; assay: Inhibition of wild type partial length human PIK3CG (S144 to A1102 residues) expressed in mammalian cells assessed as residual activity at 10 uM relative to control; format: cell-based
Target sequence in this assay (P48736 whole entry, looked up, canonical isoform): as the sequence (P48736 whole entry, canonical isoform) above

Pfeiffer [33] = assay: Induction of apoptosis in human Pfeiffer cells assessed as early apoptotic cells at 10 uM incubated for 48 hrs by annexin V-FITC staining based flow cytometry (reference value: 4.16 %); format: functional
Pfeiffer [34] = assay: Antitumor activity against human Pfeiffer cells xenografted in nude mouse assessed as tumor growth inhibition at 5 mg/kg, ip BID for 21 days and measured twice weekly; format: functional; details: 504 h, time 21 day, read-out: TGI
Pfeiffer [35] = assay: Induction of apoptosis in human Pfeiffer cells assessed as late apoptotic cells at 50 uM incubated for 48 hrs by annexin V-FITC staining based flow cytometry (reference value: 7.87 %); format: functional
Pfeiffer [36] = assay: Induction of apoptosis in human Pfeiffer cells assessed as necrotic cells at 50 uM incubated for 48 hrs by annexin V-FITC staining based flow cytometry (reference value: 6.62 %); format: functional

Sequence of Ribosomal protein S6 kinase alpha-3 (Homo sapiens) (P51812 whole entry, the tested form may be a part): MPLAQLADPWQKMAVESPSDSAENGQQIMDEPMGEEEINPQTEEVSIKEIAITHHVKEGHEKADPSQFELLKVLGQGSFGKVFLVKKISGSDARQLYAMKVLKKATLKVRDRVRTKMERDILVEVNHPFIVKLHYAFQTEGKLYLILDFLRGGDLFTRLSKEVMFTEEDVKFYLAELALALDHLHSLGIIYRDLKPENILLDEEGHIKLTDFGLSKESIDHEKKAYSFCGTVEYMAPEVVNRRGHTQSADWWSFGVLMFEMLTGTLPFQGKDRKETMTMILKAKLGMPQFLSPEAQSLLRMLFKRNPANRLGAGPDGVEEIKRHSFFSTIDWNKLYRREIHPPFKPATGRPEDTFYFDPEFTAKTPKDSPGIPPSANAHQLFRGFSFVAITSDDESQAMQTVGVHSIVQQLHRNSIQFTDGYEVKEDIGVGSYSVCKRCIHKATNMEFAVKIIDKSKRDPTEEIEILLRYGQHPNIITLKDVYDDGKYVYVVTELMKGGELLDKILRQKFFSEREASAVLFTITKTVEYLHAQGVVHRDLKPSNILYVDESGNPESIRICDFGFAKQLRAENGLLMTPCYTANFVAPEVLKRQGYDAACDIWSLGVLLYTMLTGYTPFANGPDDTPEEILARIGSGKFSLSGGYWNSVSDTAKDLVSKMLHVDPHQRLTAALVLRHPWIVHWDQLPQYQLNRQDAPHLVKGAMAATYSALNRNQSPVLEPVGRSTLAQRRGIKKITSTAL
Sequence of Phosphatidylinositol 4,5-bisphosphate 3-kinase catalytic subunit alpha isoform (Mus musculus, UniProt P42337) (P42337 whole entry, canonical isoform): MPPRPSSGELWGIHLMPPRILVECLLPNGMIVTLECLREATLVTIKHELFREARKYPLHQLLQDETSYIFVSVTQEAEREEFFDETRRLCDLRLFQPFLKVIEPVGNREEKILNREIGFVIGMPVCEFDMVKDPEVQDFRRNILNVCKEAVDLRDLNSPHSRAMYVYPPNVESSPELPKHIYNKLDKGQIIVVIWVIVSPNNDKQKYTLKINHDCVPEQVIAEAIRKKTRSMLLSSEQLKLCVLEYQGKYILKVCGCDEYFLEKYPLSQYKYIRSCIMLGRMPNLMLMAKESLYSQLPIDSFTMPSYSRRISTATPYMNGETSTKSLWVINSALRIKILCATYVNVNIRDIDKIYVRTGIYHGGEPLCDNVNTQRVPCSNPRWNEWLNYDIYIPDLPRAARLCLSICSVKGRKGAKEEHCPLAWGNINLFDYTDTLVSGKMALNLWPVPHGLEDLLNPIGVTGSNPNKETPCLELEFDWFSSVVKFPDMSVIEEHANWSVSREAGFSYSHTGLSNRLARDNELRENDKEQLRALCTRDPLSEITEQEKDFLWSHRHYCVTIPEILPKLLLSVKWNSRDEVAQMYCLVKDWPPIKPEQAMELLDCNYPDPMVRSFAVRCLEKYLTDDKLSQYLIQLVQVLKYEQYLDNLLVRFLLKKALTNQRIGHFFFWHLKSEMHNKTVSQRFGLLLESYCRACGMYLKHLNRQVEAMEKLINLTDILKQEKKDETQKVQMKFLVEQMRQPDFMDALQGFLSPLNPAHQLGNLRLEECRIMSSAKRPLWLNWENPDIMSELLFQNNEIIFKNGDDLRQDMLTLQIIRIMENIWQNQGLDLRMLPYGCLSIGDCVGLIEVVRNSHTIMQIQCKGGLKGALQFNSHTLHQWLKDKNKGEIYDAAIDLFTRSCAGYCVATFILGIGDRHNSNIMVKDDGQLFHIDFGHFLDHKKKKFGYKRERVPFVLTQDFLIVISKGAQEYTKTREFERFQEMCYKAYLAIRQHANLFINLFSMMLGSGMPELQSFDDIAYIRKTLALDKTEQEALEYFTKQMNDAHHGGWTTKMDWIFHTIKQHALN
Sequence of Phosphatidylinositol 4,5-bisphosphate 3-kinase catalytic subunit beta isoform (P42338 whole entry, canonical isoform): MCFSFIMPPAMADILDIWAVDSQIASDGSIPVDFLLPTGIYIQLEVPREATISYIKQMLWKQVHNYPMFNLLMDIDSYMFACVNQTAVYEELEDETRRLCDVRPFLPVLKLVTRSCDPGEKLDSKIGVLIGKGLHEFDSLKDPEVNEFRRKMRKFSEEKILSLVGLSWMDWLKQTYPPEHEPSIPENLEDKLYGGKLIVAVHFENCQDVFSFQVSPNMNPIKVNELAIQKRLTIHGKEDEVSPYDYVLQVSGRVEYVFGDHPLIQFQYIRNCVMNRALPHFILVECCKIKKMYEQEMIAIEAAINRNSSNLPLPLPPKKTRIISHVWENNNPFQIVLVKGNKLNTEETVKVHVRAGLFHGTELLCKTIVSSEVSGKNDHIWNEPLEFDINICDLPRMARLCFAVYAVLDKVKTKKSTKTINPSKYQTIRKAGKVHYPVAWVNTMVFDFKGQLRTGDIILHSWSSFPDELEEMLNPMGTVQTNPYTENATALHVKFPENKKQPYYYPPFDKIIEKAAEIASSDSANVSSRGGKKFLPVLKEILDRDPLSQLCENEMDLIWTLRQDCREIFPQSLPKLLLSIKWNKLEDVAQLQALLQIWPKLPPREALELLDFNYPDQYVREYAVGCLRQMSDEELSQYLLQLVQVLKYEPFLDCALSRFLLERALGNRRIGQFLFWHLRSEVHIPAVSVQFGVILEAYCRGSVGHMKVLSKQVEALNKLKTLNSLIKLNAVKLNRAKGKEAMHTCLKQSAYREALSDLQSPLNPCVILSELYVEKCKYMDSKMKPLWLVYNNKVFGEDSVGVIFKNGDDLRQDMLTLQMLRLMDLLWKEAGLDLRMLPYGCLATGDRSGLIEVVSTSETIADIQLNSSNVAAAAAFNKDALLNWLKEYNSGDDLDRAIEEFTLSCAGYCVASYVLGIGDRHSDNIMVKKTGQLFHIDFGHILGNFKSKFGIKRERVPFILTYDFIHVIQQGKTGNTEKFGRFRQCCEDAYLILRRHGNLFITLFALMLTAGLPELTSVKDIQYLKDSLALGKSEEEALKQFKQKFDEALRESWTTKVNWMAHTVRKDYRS
Sequence of Phosphatidylinositol 4,5-bisphosphate 3-kinase catalytic subunit alpha isoform (Homo sapiens, UniProt P42336) (P42336 whole entry, the tested form may be a part, canonical isoform): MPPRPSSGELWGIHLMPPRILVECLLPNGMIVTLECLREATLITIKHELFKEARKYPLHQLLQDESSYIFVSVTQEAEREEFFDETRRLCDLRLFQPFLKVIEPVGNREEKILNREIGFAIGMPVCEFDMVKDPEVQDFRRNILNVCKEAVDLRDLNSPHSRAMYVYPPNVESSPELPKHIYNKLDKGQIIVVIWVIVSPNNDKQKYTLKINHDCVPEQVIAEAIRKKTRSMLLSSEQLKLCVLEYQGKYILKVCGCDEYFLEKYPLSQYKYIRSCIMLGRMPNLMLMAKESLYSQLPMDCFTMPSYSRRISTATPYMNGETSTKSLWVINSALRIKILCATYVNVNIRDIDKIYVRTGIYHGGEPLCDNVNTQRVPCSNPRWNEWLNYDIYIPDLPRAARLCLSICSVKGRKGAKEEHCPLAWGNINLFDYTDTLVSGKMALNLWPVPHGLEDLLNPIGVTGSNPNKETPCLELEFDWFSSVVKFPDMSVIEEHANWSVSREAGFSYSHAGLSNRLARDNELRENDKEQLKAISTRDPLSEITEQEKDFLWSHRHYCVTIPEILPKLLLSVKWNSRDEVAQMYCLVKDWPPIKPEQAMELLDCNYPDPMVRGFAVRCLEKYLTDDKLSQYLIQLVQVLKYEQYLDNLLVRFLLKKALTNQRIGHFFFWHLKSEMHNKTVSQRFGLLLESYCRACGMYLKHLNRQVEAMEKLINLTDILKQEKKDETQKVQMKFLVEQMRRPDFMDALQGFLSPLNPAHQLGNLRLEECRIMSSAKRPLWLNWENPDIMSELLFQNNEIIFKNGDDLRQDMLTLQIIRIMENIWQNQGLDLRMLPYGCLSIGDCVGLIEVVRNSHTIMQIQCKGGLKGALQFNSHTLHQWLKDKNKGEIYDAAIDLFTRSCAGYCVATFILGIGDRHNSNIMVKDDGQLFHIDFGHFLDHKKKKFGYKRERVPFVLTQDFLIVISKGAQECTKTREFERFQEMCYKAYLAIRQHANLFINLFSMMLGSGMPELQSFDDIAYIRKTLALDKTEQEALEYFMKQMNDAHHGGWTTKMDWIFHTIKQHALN

## CCC(=O)N1CC[C@H](Nc2ncnc3sc(-c4cnc(OC)c(OC)c4)cc23)C1
[1]
  Tmax: 4.8 min
SU-DHL-6 [2]
  inhibition: Dde
[3]
  IC50: 0.31 µM
[4]
  Activity: 23%
Rec1
  IC50: 1.21 µM
[5]
  CLint scaled: 60.3 mL/min/kg
Pfeiffer [6]
  Activity: Active
[7]
  IC50: 50.2 µM
Pfeiffer [8]
  Activity: 33.75%
SU-DHL-6 [9]
  IC50: 1.43 µM
[10]
  AUC(0-inf): 1030 ng·h/mL
[11]
  fraction unbound: 0.029
[12]
  solubility: 102 µM (≈ 42.1 µg/mL)
[13]
  AUC(0-t) at 24 h: 1370 ng·h/mL
Z-138
  IC50: 7.05 µM
Pfeiffer [14]
  Activity: 22.9%
[15]
  IC50: > 10 µM
[16]
  Activity: 10%
[17]
  Activity: 10%
SU-DHL-6 [18]
  inhibition: Dde
[19]
  bioavailability: 7.49%
[20]
  clearance: 36.5 mL/min/kg
Pfeiffer [21]
  Activity: 5.01%
[22]
  IC50: 5.12 µM
[23]
  half-life: 1.73 h
JeKo-1
  IC50: 14.7 µM
SU-DHL-6 [24]
  Activity: Active
Pfeiffer [25]
  Activity: 76.43%
[26]
  Cmax: 3190 ng/mL
[27]
  Vd: 5.49 L/kg
[28]
  IC50: 2.68 µM
Pfeiffer [29]
  Activity: 15.74%
SU-DHL-6 [30]
  Activity: Dde
[31]
  half-life: 1.51 h
[32]
  Activity: 9.9%
Pfeiffer [33]
  Activity: 6.98%
Pfeiffer [34]
  inhibition in vivo at 5 mg/kg: 69%
Pfeiffer [35]
  Activity: 43.33%
Pfeiffer [36]
  Activity: 7.18%
